What follows are compounds tested against T1, ASGP receptor (biotinylated ASGPR) (Homo sapiens, UniProt P07306). Details: SPR, Biacore 8K, 25° C.; Table 1A; read-out: ASGPR KD.
T1 construct: biotin (biotinylated)
T1 sequence (P07306 1-291): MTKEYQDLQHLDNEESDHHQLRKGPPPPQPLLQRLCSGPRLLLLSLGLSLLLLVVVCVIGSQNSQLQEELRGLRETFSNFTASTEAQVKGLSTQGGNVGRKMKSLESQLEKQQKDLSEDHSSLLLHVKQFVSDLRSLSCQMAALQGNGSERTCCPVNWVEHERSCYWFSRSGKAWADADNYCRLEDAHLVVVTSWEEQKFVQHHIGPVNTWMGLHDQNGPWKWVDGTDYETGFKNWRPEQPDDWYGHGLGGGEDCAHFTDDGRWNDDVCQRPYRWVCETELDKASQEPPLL
Format: binding

| Kd [µM] | Structure (SMILES) |
| --- | --- |
| < 10 | O[C@@H]1[C@H](O)[C@@H](Nc2cncc(C(F)(F)F)n2)CO[C@@H]1CN1CCCNCC1 [A68, (2R,3R,4R,5S)-2-((1,4-diazepan-1-yl)methyl)-5-((6-(trifluoromethyl)pyrazin-2-yl)amino)tetrahydro-2H-pyran-3,4-diol] |
| < 10 | O=C(NC[C@H]1OC[C@H](Nc2cncc(C(F)(F)F)n2)[C@@H](O)[C@H]1O)c1cnc(-c2ccccc2)cn1 [A83, N-(((2R,3R,4R,5 S)-3,4-dihydroxy-5-((6-(trifluoromethyl)pyrazin-2-yl)amino)tetrahydro-2H-pyran-2-yl)methyl)-5-phenylpyrazine-2-carboxamide] |
| < 10 | O=C(CC12CC3CC(CC(C3)C1)C2)NC[C@H]1OC[C@H](Nc2cncc(C(F)(F)F)n2)[C@@H](O)[C@H]1O [A12, 2-((3R,5R,7R)-adamantan-1-yl)-N-(((2R,3R,4R,5S)-3,4-dihydroxy-5-((6-(trifluoromethyl)pyrazin-2-yl)amino)tetrahydro-2H-pyran-2-yl)methyl)acetamide] |
| < 10 | CC(=O)N[C@@H]1[C@@H](O)[C@@H](O)[C@@H](CO)O[C@@H]1c1ccccc1 [A95, N-((2R,3R,4R,5R,6R)-4,5-dihydroxy-6-(hydroxymethyl)-2-phenyltetrahydro-2H-pyran-3-yl)acetamide] |
| < 10 | O=C(NC[C@H]1OC[C@H](Nc2cncc(C(F)(F)F)n2)[C@@H](O)[C@H]1O)c1ncc2c(n1)CCNC2 [A86, N-(((2R,3R,4R,5S)-3,4-dihydroxy-5-((6-(trifluoromethyl)pyrazin-2-yl)amino)tetrahydro-2H-pyran-2-yl)methyl)-5,6,7,8-tetrahydropyrido[4,3-d]pyrimidine-2-carboxamide] |
| < 10 | O=C(NC[C@H]1OC[C@H](Nc2cncc(C(F)(F)F)n2)[C@@H](O)[C@H]1O)C12CC3CC(CC(C3)C1)C2 [A15, (1S,3S)—N-(((2R,3R,4R,5S)-3,4-dihydroxy-5-((6-(trifluoromethyl)pyrazin-2-yl)amino)tetrahydro-2H-pyran-2-yl)methyl)adamantane-1-carboxamide] |
| 10 to 100 | OC[C@H]1CC[C@H](Nc2nccc(C(F)(F)F)n2)[C@@H](O)[C@H]1O [A54, (1R,2S,3R,6S)-3-(hydroxymethyl)-6-((4-(trifluoromethyl)pyrimidin-2-yl)amino)cyclohexane-1,2-diol] |
| < 10 | O=C(NC[C@H]1OC[C@H](Nc2cncc(C(F)(F)F)n2)[C@@H](O)[C@H]1O)c1cnco1 [A48, N-(((2R,3R,4R,5S)-3,4-dihydroxy-5-((6-(trifluoromethyl)pyrazin-2-yl)amino)tetrahydro-2H-pyran-2-yl)methyl)oxazole-5-carboxamide] |
| < 10 | O=C(NC[C@H]1OC[C@H](Nc2cncc(C(F)(F)F)n2)[C@@H](O)[C@H]1O)c1cc2ccccc2[nH]1 [A14, N-(((2R,3R,4R,5S)-3,4-dihydroxy-5-((6-(trifluoromethyl)pyrazin-2-yl)amino)tetrahydro-2H-pyran-2-yl)methyl)-1H-indole-2-carboxamide] |
| < 10 | N#CC[C@H]1OC[C@H](Nc2cncc(C(F)(F)F)n2)[C@@H](O)[C@H]1O [A21, 2-((2R,3R,4R,5S)-3,4-dihydroxy-5-((6-(trifluoromethyl)pyrazin-2-yl)amino)tetrahydro-2H-pyran-2-yl)acetonitrile] |
| < 10 | O=C(O)COCCOCC(=O)NC[C@H]1OC[C@H](Nc2ccnc(C(F)(F)F)c2)[C@@H](O)[C@H]1O [A107, 2-(2-(2-((((2R,3R,4R,5S)-3,4-dihydroxy-5-((2-(trifluoromethyl)pyridin-4-yl)amino)tetrahydro-2H-pyran-2-yl)methyl)amino)-2-oxoethoxy)ethoxy)acetic acid] |
| < 10 | NC[C@H]1OC[C@H](Nc2cccc(C(F)(F)F)n2)[C@@H](O)[C@H]1O [A98, (2R,3R,4R,5S)-2-(aminomethyl)-5-((6-(trifluoromethyl)pyridin-2-yl)amino) tetrahydro-2H-pyran-3,4-diol] |
| < 10 | O=C(O)c1ccc(N2CCC(CN3CCN(C[C@H]4OC[C@H](Nc5ccnc(C(F)(F)F)n5)[C@@H](O)[C@H]4O)CC3)CC2)cc1 [A97, 4-(4-((4-(((2R,3R,4R,5S)-3,4-dihydroxy-5-((2-(trifluoromethyl)pyrimidin-4-yl)amino)tetrahydro-2H-pyran-2-yl)methyl)piperazin-1-yl)methyl)piperidin-1-yl)benzoic acid] |
| < 10 | O[C@@H]1[C@H](O)[C@@H](Nc2cncc(C(F)(F)F)n2)CO[C@@H]1CN1CCCCCCC1 [A73, (2R,3R,4R,5S)-2-(azocan-1-ylmethyl)-5-((6-(trifluoromethyl)pyrazin-2-yl)amino)tetrahydro-2H-pyran-3,4-diol] |
| < 10 | O=C(NC[C@H]1OC[C@H](Nc2cncc(C(F)(F)F)n2)[C@@H](O)[C@H]1O)c1n[nH]c2ccccc12 [A44, N-(((2R,3R,4R,5S)-3,4-dihydroxy-5-((6-(trifluoromethyl)pyrazin-2-yl)amino)tetrahydro-2H-pyran-2-yl)methyl)-1H-indazole-3-carboxamide] |

Same assay, conditions: SPR, Biacore 8K, 25° C.; Table 1B, numeric bound; read-out: ASGPR Kd

| Kd [µM] | Structure (SMILES) |
| --- | --- |
| > 30 | OC[C@H]1OC[C@H](NC2CCCC(C(F)(F)F)C2)[C@@H](O)[C@H]1O (stereo partly drawn) [A158, (2R,3R,4R,5S)-2-(hydroxymethyl)-5-((3-(trifluoromethyl)cyclohexyl)amino) tetrahydro-2H-pyran-3,4-diol] |

Same assay, conditions: SPR, Biacore 8K, 25° C.; Table 1B; read-out: ASGPR Kd

| Kd [µM] | Structure (SMILES) |
| --- | --- |
| < 10 | O=C(OCc1ccccc1)N1C[C@H](Nc2cncc(C(F)(F)F)n2)[C@@H](O)[C@@H](O)C1 [A149, benzyl (3S,4R,5S)-3,4-dihydroxy-5-((6-(trifluoromethyl)pyrazin-2-yl)amino)piperidine-1-carboxylate] |

Same assay, conditions: SPR, Biacore 8K, 25° C.; Table 1C; read-out: ASGPR KD

| Kd [µM] | Structure (SMILES) |
| --- | --- |
| < 10 | O=C(O)COCCOCC(=O)NC[C@@]12CO[C@@H](O1)[C@H](Nc1cncc(C(F)(F)F)n1)[C@@H](O)[C@H]2O [A305] |
| < 10 | O=C1c2ccc(F)cc2CN1C[C@H]1OC[C@H](Oc2cccc(C(F)(F)F)n2)[C@@H](O)[C@H]1O [A273] |
| < 10 | O=C(O)CN1CCC(N2CCN(C[C@H]3OC[C@H](Nc4cncc(C(F)(F)F)n4)[C@@H](O)[C@H]3O)CC2)CC1 [A206, 2-(4-(4-(((2R,3R,4R,5S)-3,4-dihydroxy-5-((6-(trifluoromethyl)pyrazin-2-yl)amino)tetrahydro-2H-pyran-2-yl)methyl)piperazin-1-yl)piperidin-1-yl)acetic acid] |
| < 10 | CC(O)[C@H]1O[C@H](C)[C@H](O)[C@H](O)[C@H]1Oc1cccc(C(F)(F)F)n1 (some centres unmarked) [A339] |
| < 10 | O=C(O)c1c(F)cc(CN2CCN(C[C@H]3OC[C@H](Nc4cncc(C(F)(F)F)n4)[C@@H](O)[C@H]3O)CC2)cc1F [A251] |
| < 10 | O[C@@H]1[C@H](O)[C@@H](Oc2cccc(C(F)(F)F)n2)CO[C@@H]1COc1cccnc1 [A301] |
| < 10 | CC(C)(C)OC(=O)N1CC(Cc2ccc(OC[C@H]3OC[C@H](Oc4cccc(C(F)(F)F)n4)[C@@H](O)[C@H]3O)nn2)C1 [A256] |
| < 10 | O[C@@H]1[C@H](O)[C@@H](Oc2cccc(C(F)(F)F)n2)CO[C@@H]1COc1ccc(Br)c(F)c1 [A198, (2R,3R,4S,5S)-2-((4-bromo-3-fluorophenoxy)methyl)-5-((6-(trifluoromethyl)pyridin-2-yl)oxy)tetrahydro-2H-pyran-3,4-diol] |
| < 10 | CN1CCN(C[C@H]2OC[C@H](Oc3cccc(C(F)(F)F)n3)[C@@H](O)[C@H]2O)CC1 [A249] |
| < 10 | O[C@@H]1[C@H](O)[C@@H](Nc2cncc(C(F)(F)F)n2)CO[C@@H]1COc1ccc(-c2ccccc2)cc1 [A202, (2R,3R,4R,5S)-2-(([1,1′-biphenyl]-4-yloxy)methyl)-5-((6-(trifluoromethyl)pyrazin-2-yl)amino)tetrahydro-2H-pyran-3,4-diol] |
| < 10 | O=C(O)c1ccc(-c2ccc(OC[C@H]3OC[C@H](Oc4cccc(C(F)(F)F)n4)[C@@H](O)[C@H]3O)nn2)cc1 [A255] |

Same assay, conditions: SPR, Biacore 8K, 25° C.; Table 1D; read-out: ASGPR KD

| Kd [µM] | Structure (SMILES) |
| --- | --- |
| < 10 | O=C(OCc1ccccc1)N1CC(c2ccc(OC[C@H]3OC[C@H](Nc4cncc(C(F)(F)F)n4)[C@@H](O)[C@H]3O)nn2)C1 [A410] |
| < 10 | O=C(OCc1ccccc1)N1C[C@H](Nc2ccnc(C(F)(F)F)n2)[C@@H](O)[C@@H](O)C1 [A375] |
| < 10 | O=C(c1ccc(C(F)(F)F)cc1F)N1C[C@H](Nc2cncc(C(F)(F)F)n2)[C@@H](O)[C@@H](O)C1 [A379] |
| < 10 | CN1C[C@H](Nc2cncc(C(F)(F)F)n2)[C@@H](O)[C@@H](O)C1 [A363] |
| < 10 | O[C@@H]1[C@@H](Nc2cncc(C(F)(F)F)n2)CNC[C@@H]1O [A362] |
| < 10 | O=C(O)c1ccc(-c2ccc(CN3C[C@H](Nc4cncc(C(F)(F)F)n4)[C@@H](O)[C@@H](O)C3)cc2)cc1 [A387] |
| < 10 | Cc1nnc(N2C[C@H](Oc3cccc(C(F)(F)F)n3)[C@@H](O)[C@@H](O)C2)s1 [A351] |
| 10 to 100 | CN1C[C@H](Oc2cccc(C(F)(F)F)n2)[C@@H](O)[C@@H](O)C1 [A403] |
| < 10 | O=C(O)C1CCN(c2ccc(N3C[C@H](Nc4cncc(C(F)(F)F)n4)[C@@H](O)[C@@H](O)C3)nc2)CC1 [A401] |
| < 10 | Cc1nnc(N2C[C@H](Oc3cccc(C(F)(F)F)n3)[C@@H](O)[C@@H](O)C2)o1 [A352] |
| < 10 | Nc1ccc(OC[C@H]2OC[C@H](Nc3cncc(C(F)(F)F)n3)[C@@H](O)[C@H]2O)nn1 [A418] |

Same assay, conditions: SPR, Biacore 8K, 25° C.; Table 1E; read-out: ASGPR KD

| Kd [µM] | Structure (SMILES) |
| --- | --- |
| < 10 | C[C@H]1O[C@H](C#N)[C@H](Oc2cccc(C(F)(F)F)n2)[C@@H](O)[C@H]1O [A432] |
| < 10 | C[C@H]1O[C@H](C2=CC3C(C2=O)[C@@H]2CC[C@H]3C2)[C@H](Oc2cccc(C(F)(F)F)n2)[C@@H](O)[C@H]1O (some centres unmarked) [A435A] |

From patent US20260083851A1 (AVILAR THERAPEUTICS, INC., priority 2022, published 2026)
